# Tests used:
# VEGFR2 and ERK = experiment: VEGF-induced signaling, immunoblot, PrxII knocked down HAECs; format: cell-based, human; conditions: 2 hours pretreatment, VEGF 10 minutes
# Protocol: The cells were rinsed with an ice-cold phosphate buffered saline (PBS) solution and then lysed in an extraction buffer solution containing 20 mM Hepes (pH 7.0), 1% Triton X-100, 150 mM NaCl, 10% glycerol, 1 mM EDTA, 2 mM EGTA, 1 mM DTT, 5 mM Na3VO4, 5 mM NaF, 1 mM AEBSF, aprotinin (5 μg/ml), and leupeptin (5 μg/ml). After being centrifuged at 12,000×g, the purified cell extracts were used for immunoblotting. In order to adjust the loading, the membranes were stripped by shaking them for 30 minutes at 60° C. in 67 mM Tris (pH 6.7), 2% SDS, and 100 mM 2-mercaptoethanol solution, and reprobed with an appropriate pan antibody.
# In addition, the regulatory effects of GT on the PDGFRβ- and VEGFR2-mediated signaling pathway were examined. The GT treatment in HASMCs was quite different from PDGF-induced tyrosine phosphorylation that was enhanced by the PrxII knockdown (FIG. 12a). […] Conversely, the GT treatment in HAECs restored the VEGF-dependent activation of VEGFR2 and ERK that had been diminished by the PrxII knockdown (FIG. 12b). The effects of GT in vascular cell fuction were further validated.
# Lastly, the effects of GT, a representative ETP compound, on vascular cells were compared with the effects of other compounds known as anti-oxidant compounds such as N-acetylcysteine or butylated hydroxyanisole, and the results are shown in FIG. 33. Immunoblotting was performed by pretreating HAECs in which PrxII was knocked down by injecting siRNA with each compound at the concentrations indicated in the graphs for two hours, and then treating with VEGF for 10 minutes. […] These comparative experiments led the inventors of the present invention to conclude that the distinguished […] function of the ETP compounds is clearly due to the PrxII-analogous activity, and additionally to the special chemical property of the dithioketopiperazine ring.
# NADPH oxidase (NOX) = experiment: NADPH oxidase activity assay (whole cell superoxide production); format: cell-based, human; conditions: HASMCs with PDGF-B and HAECs with VEGF-A; until concentrations increased up to 500 nM
# Protocol: Whole cell superoxide production was measured using an enhanced luminescence system (Diogenes, National Diagnostics). For the assay, the serum-starved cells were pre-incubated with a 100 μl Diogene reagent at 37° C. for 5 minutes. After being stimulated by the indicated growth factor, chemiluminescence was detected every second for 10 minutes with a TD-20/20 Luminometer (Turner Biosystems).
# When HASMCs and HAECs were stimulated with PDGF-B and VEGF-A, respectively, the NOX activity increased approximately twofold. […] Thus, it was seen that these ETP compounds function as hydrogen peroxide reductase capable of replacing PrxII in both vascular cells, but the mechanism was not the inhibition of hydrogen peroxide producer NOX.
# [1] = tested on: human aortic endothelial cells (HAECs); experiment: Cytotoxicity (cell viability), HAECs; format: cell-based; conditions: compared with gliotoxin and A1 to A9
# Protocol: (§1) Most ETP compounds have been known to be cytotoxic to animal cells. Accordingly, the inventors of the present invention determined a safe concentration range of the epidithiodioxopiperazine compound or its derivatives in vascular cells. For this, human aortic smooth muscle cells (HASMCs) and human aortic endothelial cells (HAECs) were pretreated for 2 hours with various concentrations of gliotoxin or chaetocin, and A1 to A9 that are ETP derivatives according to the present invention, and cultured in a fresh medium for 24 hours followed by cell viability assay (FIGS. 6 to 10).
# [2] = tested on: human aortic smooth muscle cells (HASMCs); experiment: Cytotoxicity (cell viability), HASMCs; format: cell-based; conditions: compared with gliotoxin and A1 to A9
# Protocol: as §1
# SK-MEL28 melanoma cells = format: cell-based, human; conditions: at a concentration of 100 nM; tested 0, 100, 200, 500 and 1000 nM
# Protocol: Specifically, after chaetocin and chetomin was treated with SK-MEL28 melanoma cells at different concentrations (0, 100, 200, 500 and 1000 nM), the cell viability was checked, and the result is shown in FIG. 54A.
# SK-MEL-28 (SK28) cells = experiment: Melanoma proliferation and migration assay, SK28; format: cell-based, human; conditions: 100 nM, 1 hour pretreatment
# Protocol: The extent of cell proliferation was measured using a WST-1 cell proliferation assay kit (Roche Diagnostics, USA) according to the protocol of the manufacturer. The number of cells was expressed as an absorbance value at 450 nm averaged from 3 wells after subtracting the turbidity at 600 nm. The chemotactic transmigration assay was performed in a 24-well Transwell culture chamber (Costar; polycarbonate membrane insert with 8-μm pore size). The bottom of the insert was coated with gelatin B (1 mg/ml) and air-dried for 1 hour. Retroviruses or transfection complexes were treated to melanoma cells (6×10^3). After 24 hours, the infected or transfected melanoma cells were serum-starved for 18 hours. A 20% FBS solution was added to bottom chambers including a basal medium containing 0.5% BSA. The upper chamber wells were each filled with a basal medium including 0.5% BSA. The Transwell chamber was incubated for 12 hours in a 37° C./5% CO2 incubator. After the incubation, the non-migrating cells at the top of the filter were removed. The cells that migrated onto the bottom of filter were fixed and stained with 0.6% hematoxylin and 0.5% eosin. The stained cells were photographed and counted. The number of migrating cells was averaged from 3 wells. […]
# B16F10 melanoma cells = experiment: Metastasis of B16F10 melanoma cells to lung in mouse; format: in vivo; conditions: i.p. 5 times over 10 days after i.v. injection of B16F10 cells
# Protocol: After B16F10 cells were temporarily transfected with PrxII siRNA for 24 hours and trypsinized, the cells were resuspended in a Hank's balanced salt solution (HBSS). The cell suspension was injected by intravenous injection to a C57/BL6 mouse (1×10^6 cells per mouse). The mouse was sacrified after 10 days, and the lung was removed after transcardia perfusion-fixation with a heparinized saline solution including 3.7% formaldehyde. The removed lung was paraffin embedded and sectioned using a rotary microtome (Leica RM2255). Two serial tissue sections (4 μm in thickness) were stained with haematoxylin and eosin. The melanoma tumor nodules metastasized from the surface of the lung and the HE-stained tissue sections were counted. In order to verify the effects of gliotoxin (GT), chaetocin and chetomin, the melanoma cells were intravenously injected to the C57/BL6 mouse, and then gliotoxin (300 mg/kg) was intraperitoneally injected for 5 times over 10 days.
# [3] = tested on: yeast thioredoxin (Trx) / yeast thioredoxin reductase (TR) system; experiment: Peroxidase activity assay (hydrogen peroxide reduction), Trx/TR system; format: biochemical
# Protocol: (§2) The peroxidase activity assay for the epidithiodioxopiperazine derivatives according to the present invention (hereinafter, referred to as ETP compounds) was performed according to known methods [Korean Patent No. 10-0953326]. A standard peroxidase reaction for spectrophotometric assay was carried out using a 200 μl reaction mixture of 1 mM EDTA-containing 50 mM Hepes-NaOH buffer solution (pH 7.0) including 250 μM NADPH, 3 μM yeast thioredoxin (Trx), 1.5 μM yeast thioredoxin reductase (TR), 25 μM ETP compound and […] of hydrogen peroxide. For the comparison with a glutathione (GSH)-dependent peroxidase reaction, GSH (1 mM) and yeast glutathione reductase (GSH reductase; GR) (1 Unit) were added instead of yeast Trx and TR. Each reaction was initiated by adding hydrogen peroxide, and the NADPH oxidation was monitored for 12 minutes at 30° C. according to absorbance decrease at 340 nm using an Agilent UV8453 spectrophotometer (Hewlett Packard, USA). The initial reaction rate was calculated using the linear portion of the curve and expressed as the amount of NADPH oxidized per minute.
# The chemical feature of the epidithiodioxopiperazine compound of the present invention or its derivatives is the intramolecular disulfide bridge present in the epidithiodioxopiperazine ring moiety. Cellular peroxidase reduces hydrogen peroxide utilizing the electrons derived from NADPH via two electron-transfer routes, that is, Trx/TR or GSH/GR, therefore, spectrophotometric assay was performed for the hydrogen peroxide-reducing activity in the presence of each system, and the results are shown in FIGS. 1 to 5.
# [4] = tested on: GSH / yeast glutathione reductase (GR) system; experiment: Peroxidase activity assay (hydrogen peroxide reduction), GSH/GR system; format: biochemical; conditions: 25 μM ETP compound, GSH 1 mM, GR 1 Unit
# Protocol: as §2
# The chemical feature of the epidithiodioxopiperazine compound of the present invention or its derivatives is the intramolecular disulfide bridge present in the epidithiodioxopiperazine ring moiety. […]
structure (smiles),measurement,setting,value
CC(=O)N[C@@H](CS)C(=O)O [N-acetylcysteine],VEGF-dependent activation of VEGFR2 and ERK,VEGFR2 and ERK,did not induce
COc1ccc(O)c(C(C)(C)C)c1 [butylated hydroxyanisole],VEGF-dependent activation of VEGFR2 and ERK,VEGFR2 and ERK,did not induce
CN1C(=O)[C@@]23C[C@]4([C@]56C[C@@]78SS[C@@](CO)(C(=O)N7[C@H]5Nc5ccccc56)N(C)C8=O)c5ccccc5N[C@@H]4N2C(=O)[C@]1(CO)SS3 [chaetocin],NOX activity,NADPH oxidase (NOX),did not inhibit
same,relative toxicity to HAECs,[1],relatively less toxic
same,relative toxicity to HASMCs,[2],relatively less toxic
same,toxicity (cell viability),SK-MEL28 melanoma cells,toxicity was not shown
CN1C(=O)[C@]2(Cc3cn([C@]45C[C@@]67SS[C@@](CO)(C(=O)N6[C@H]4Nc4ccccc45)N(C)C7=O)c4ccccc34)SS[C@@]1(CO)C(=O)N2C [chetomin],"proliferation and migration responding to serum stimulation, SK28",SK-MEL-28 (SK28) cells,effectively impeded
same,metastasis of B16F10 melanoma cells to lung (tumor nodules),B16F10 melanoma cells,significantly reduced
same,activity in the presence of a Trx/TR system relative to the activity of GT,[3],approximately two-fold higher
same,hydrogen peroxide-reducing activity in the presence of a Trx/TR system,"[3]; 25 μM ETP compound, 30° C., NADPH oxidation at 340 nm",8.62 ± 0.51 nmol/min
same,toxicity (cell viability),SK-MEL28 melanoma cells,toxicity was not shown
same,hydrogen peroxide-reducing activity in the presence of a GSH/GR system,[4],2.53 ± 0.79 nmol/min

# Source: patent US10450327B2, “Epidithiodioxopiperazine compound or its derivatives, and the use thereof” (priority 2011, dated 2019)
